From article PMC6433232, “Targeting mitochondria in cancer therapy could provide a basis for the selective anti-cancer activity” (PLoS ONE, 2019)

System: primary acute myeloid leukemia (AML) cells obtained from patients
Test: Kinase inhibitor library screening with and without NSC130362, primary AML cells
Type: cell-based, Human
Conditions: ratio of EC50 for inhibitor to EC50 for inhibitor/NSC130362 combination, NSC130362 10 μM

| Compound | EC50 decrease, fold (Screen N 1) [fold] | EC50 decrease, fold (Screen N 2) [fold] | EC50 decrease, fold (Screen N 3) [fold] |
| --- | --- | --- | --- |
| CN1CCN(c2ccc3nc(-c4c(N)c5c(F)cccc5[nH]c4=O)[nH]c3c2)CC1 [Dovitinib (CHIR-258)] | 2.6 | 1.0 | 96.7 |
| CCOc1cc2ncc(C#N)c(Nc3ccc(F)c(Cl)c3)c2cc1NC(=O)/C=C/CN(C)C [Pelitinib (EKB-569)] | 1.4 | 0.843 | 46.0 |
| COc1cc2c(Oc3ccc(NC(=O)C4(C(=O)Nc5ccc(F)cc5)CC4)cc3F)ccnc2cc1OCCCN1CCOCC1 [Foretinib (XL880)] | 0.666 | 1.0 | 2.2 |
| NF-kB Activation Inhibitor | 11.2 | 1.0 | 0.0602 |
| CC1(C)CNc2cc(NC(=O)c3cccnc3NCc3ccncc3)ccc21 [Motesanib (AMG-706)] | 1.0 | 1.0 | 1.0 |
| CCCS(=O)(=O)Nc1ccc(F)c(C(=O)c2c[nH]c3ncc(-c4ccc(Cl)cc4)cc23)c1F [Vemurafenib (PLX-4032)] | 1.0 | 1.0 | – |
| COc1cc(C(=O)O)ccc1NC(=O)[C@@H]1N[C@@H](CC(C)(C)C)[C@](C#N)(c2ccc(Cl)cc2F)[C@H]1c1cccc(Cl)c1F [Idesanutlin] | – | 1.0 | – |
| CCS(=O)(=O)O.COC(=O)c1ccc2c(c1)NC(=O)/C2=C(\Nc1ccc(N(C)C(=O)CN2CCN(C)CC2)cc1)c1ccccc1 [Vargetef] | 0.229 | 1.0 | 0.14 |
| Cn1c(=O)n(-c2ccc(C(C)(C)C#N)cc2)c2c3cc(-c4cnc5ccccc5c4)ccc3ncc21 [BEZ235] | 4.0 | 0.7 | 8.8 |
| CCn1c(-c2nonc2N)nc2c(C#CC(C)(C)O)ncc(OC[C@H]3CCCNC3)c21 [GSK690693] | 0.165 | 1.0 | 1.1 |
| CN1CC[C@H](c2c(O)cc(O)c3c(=O)cc(-c4ccccc4Cl)oc23)[C@H](O)C1 [Flavopiridol] | 2.0 | 1.1 | 0.0683 |
| CC[C@H](C)C(=O)O[C@H]1C[C@@H](C)C=C2C=C[C@H](C)[C@H](CC[C@@H]3C[C@@H](O)CC(=O)O3)[C@H]21 [Lovastatin] | – | – | 1.0 |
| NC(=O)c1cnc(N[C@@H]2CCCC[C@@H]2N)nc1Nc1cccc(-n2nccn2)c1 [PRT062607] | 8.1 | 1.0 | 265.0 |
| Cn1c(Nc2ccc(C(F)(F)F)cc2)nc2cc(Oc3ccnc(-c4ncc(C(F)(F)F)[nH]4)c3)ccc21 [RAF265 (CHIR-265)] | 2.6 | 0.8 | 0.0556 |
| CCc1nc(C(N)=O)c(Nc2ccc(N3CCC(N4CCN(C)CC4)CC3)c(OC)c2)nc1NC1CCOCC1 [Gilteritinib (ASP-2215)] | 0.2 | – | 1.3 |
| Cn1cc(-c2ccc3nnc(C(F)(F)c4ccc5ncccc5c4)n3n2)cn1 [JNJ-38877605] | 7.6 | 1.0 | 0.00829 |
| Oc1cccc(-c2nc(N3CCOCC3)c3oc4ncccc4c3n2)c1 [PI-103] | 0.452 | 2.6 | 1089.9 |

| Compound | EC50 decrease, fold (Screen N 1) [fold] | EC50 decrease, fold (Screen N 2) [fold] | EC50 decrease, fold (Screen N 3) [fold] |
| --- | --- | --- | --- |
| O=C(c1ccc(F)c(F)c1Nc1ccc(I)cc1F)N1CC(O)([C@@H]2CCCCN2)C1 [Combimetinib (GDC-0973)] | – | 0.6 | – |
| O=C(O)c1ccc2c3c1cccc3c(=O)n1c3ccccc3nc21 [STO609] | 1.4 | 1.0 | 0.000816 |
| COc1cc2nccc(Oc3ccc(NC(=O)C4(C(=O)Nc5ccc(F)cc5)CC4)cc3)c2cc1OC [Cabozantinib (XL-184)] | 3.2 | 1.0 | 0.259 |
| Nc1cccc2c1CN(C1CCC(=O)NC1=O)C2=O (stereo not drawn) [Lenalidomide] | – | – | 1.4 |
| Nc1ccn([C@@H]2O[C@H](CO)[C@@H](O)[C@@H]2O)c(=O)n1 [Cytarabine] | 28.6 | 1.0 | 0.132 |
| O=c1ncn2nc(Sc3ccc(F)cc3F)ccc2c1-c1c(Cl)cccc1Cl [VX-745] | 2.9 | 1.0 | 0.0543 |
| Cn1cc(-c2ccc3nnc(Sc4ccc5ncccc5c4)n3n2)cn1 [SGX-523] | 1.6 | 1.0 | 66.4 |
| CS(=O)(=O)CCNCc1ccc(-c2ccc3ncnc(Nc4ccc(OCc5cccc(F)c5)c(Cl)c4)c3c2)o1 [Lapatinib] | – | 1.0 | – |
| Nc1ncnc2c1c(-c1cccc(OCc3ccccc3)c1)cn2C1CC(CN2CCCC2)C1 (stereo not drawn) [NVP-ADW742] | 3.1 | 1.0 | 1.0 |
| Cc1cc(-c2ncc(CC(=O)Nc3ccc(-c4cnccn4)cn3)cc2C)ccn1 [LGK974] | – | 1.0 | – |
| c1cn2cc(-c3ccc4cn[nH]c4c3)nc(Nc3ccc(N4CCOCC4)cc3)c2n1 [Entospletinib (GS-9973)] | 16.8 | 1.0 | 0.131 |
| CC(=O)c1c(C)c2cnc(Nc3ccc(N4CCNCC4)cn3)nc2n(C2CCCC2)c1=O [Palbociclib] | 1.6 | 1.0 | 1.8 |
| CCCCCNC(=O)N1CCC(CN(Cc2ccc(Cl)cc2)Cc2ccc([N+](=O)[O-])s2)C1 (stereo not drawn) [SR9011] | – | – | 82.4 |
| CC[C@@H]1C(=O)N(C)c2cnc(Nc3ccc(C(=O)N[C@H]4CC[C@H](N5CCN(CC6CC6)CC5)CC4)cc3OC)nc2N1C(C)C [Volasertib (BI-6727)] | 0.2 | 0.4 | 68.5 |
| CC[C@H](Nc1ncnc2[nH]cnc12)c1nc2cccc(F)c2c(=O)n1-c1ccccc1 [GS-1101 (CAL-101)] | 506.3 | 1.0 | 356.4 |
| O=C(Nc1ccc2[nH]nc(-c3ccncc3)c2c1)[C@@H]1CCN(CC(=O)N2CCN(c3ccc(-c4ncccn4)cc3)CC2)C1 [SCH-772984] | – | 0.8 | – |
| COc1cc2nccc(Oc3ccc(NC(=O)Nc4cc(C)on4)c(Cl)c3)c2cc1OC [Tivozanib (AV-951)] | 15.6 | 1.0 | 89.9 |
